Results on 1 substance are retold here after US10336792B2, “Antimicrobial peptide dendrimers” (priority 2014, dated 2019).

Assay [1] in a line: 5(6)-Carboxyfluorescein leakage from lipid vesicles. To be noted: 10 mM TRIS, 107 mM NaCl, pH 7.4; peptide added at 50 s. On the procedure: Preparation A thin lipid film was prepared by evaporating a solution of 25 mg Egg PC or Egg PG in 1 mL MeOH/CHCl3 1/1 on a rotary evaporator (rt) and then in vacuo overnight. The resulting film was hydrated with 1 mL buffer (50 mM CF, 10 mM TIRS, 10 mM NaCl, pH 7.4) for 30 min, subjected to freeze-thaw cycles (7×) and extrusion (15×) through a polycarbonate membrane (pore size 100 nm). Extravesicular components were removed by gel filtration (Sephadex G-50) with 10 mM TRIS, 107 mM NaCl, pH 7.4. Final conditions: ˜2.5 mM Egg PC or Egg PG; inside: 50 mM CF, 10 mM TIRS, 10 mM NaCl, pH 7.4; outside: 10 mM TRIS, 107 mM NaCl, pH 7.4.
Experiment Egg PC or Egg PG stock solutions (37.5 μL) were diluted with a buffer (10 mM TRIS, 107 mM NaCl, pH 7.4) and placed in a thermostated fluorescence cuvette (25° C.) and gently stirred (total volume in the cuvette ˜3000 μL; final lipid concentration ˜31.25 μM). CF efflux was monitored at λem 517 nm (λex 492 nm) as a function of time after addition of 20 μL of peptide dendrimer in buffer (10 mM TRIS, 107 mM NaCl, pH 7.4) with final concentrations of 1, 5, 7.5, 10, 15, 20, 25, 30 μg/mL at t=50 s and 1.2% trition X-100 (30 μL, 0.012% final concentration) at t=300 s. Fluorescence intensities were normalized to fractional emission intensity I(t) using I(t)=(It−I0)/(I∞−I0) where I0 It at peptide dendrimer addition, I∞=It at saturation of lysis.

Assay [2] relates to Pseudomonas aeruginosa (strain PA01). The class given is cell-based. The settings on record: 25 μg/mL; 0, 1, 3, 6, 8, 24 h. On the procedure:
Cell viability was assayed against Pseudomonas aeruginosa (strain PA01). A colony of bacteria was grown in LB-medium overnight at 37° C. The concentration was quantified by measuring absorbance at 600 nm and diluted to OD600=0.1 (1×10^8 CFU/mL). The samples were prepared as stock solutions of 1 mg mL^−1 in H2O and diluted in LB to a concentration of 50 μg/mL in a 96-well microtiterplate (TPP, untreated). The sample solutions (50 μL) were mixed with the diluted bacterial suspension with an OD600 nm of 0.001 (50 μL). […] The plates were incubated at 37° C. for 1, 3, 6, 8 and 24 h. Each time point was assayed on a separate plate. For each test, two columns of the plate were kept for sterility control (SC, broth only) and growth control (GC, broth with bacterial inoculums, no antibiotics). After incubation 15 μL of WST-8 working solution (3.31 mg/mL WST-8 (Ochem Incorporation), 0.074 mg/mL PES (phenazine ethosulfate)) was added to each well and cells were incubated at 37° C. until GC had desired value. After the reaction took place, the final absorbance was read at 450 nm. For calculations, the value of the GC was set to 100% cell viability and the value of the negative control (no bacteria, SC) was set to 0% cell viability. […]
In order to determine the killing kinetics of AMPDs the amount of living bacteria was measured as a function of time after incubation with the AMPDs. […]

For a further assay, the system named is Acinetobacter baumannii. It counts as cell-based. To be noted: MH medium, 12-18 h. The gist of the method: (§1)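 Broth microdilution in Müller-Hinton medium, two-fold serial dilutions from a starting 32–256 μg/mL, compounds dissolved in PBS; inoculum about 5×10^5 CFU, incubated 37° C ~18 h. MIC taken as lowest concentration with no visible growth by eye; polymyxin as reference.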

Assay [3] deals with Staphylococcus aureus (COL, MRSA reference strain). The class given is cell-based. To be noted: MH medium, 12-18 h. The method in brief: as §1
Another assay has as its system PAO1. The class given is cell-based, Pseudomonas aeruginosa. To be noted: PAO1, MH medium + 30% human serum.
In the next assay the test system is P. aeruginosa PA01 (WT). It counts as cell-based, Pseudomonas aeruginosa.
Assay [4] deals with P. aeruginosa PEJ2.6, PEJ9.1, ZEM1.A, ZEM9.A (clinical isolates). The class given is cell-based, Pseudomonas aeruginosa. The settings on record: MH medium, 12-18 h. The method in brief: as §1

As to Polymyxin B [reference compound], the “CF leakage from phosphatidylcholine LUVs” value in assay [1] is reported as “behave in the same way”. The “killing kinetics (bacterial survival over 24 hours)” value in assay [2] is recorded as “kill P. aeruginosa immediately”. In the assay with Acinetobacter baumannii, the “MIC A. baumannii ATCC19606” value is less than 1 µg/mL. For the same substance, the “MIC S. aureus COL” value in assay [3] worked out at 64 µg/mL. Besides, in the assay with PAO1, the “MIC (MH + 30% human serum)” value was 4 µg/mL. The “MIC PAO1” value against P. aeruginosa PA01 (WT) (MH medium, 12-18 h, two independent experiments in triplicate (Table 25)) came to 1 µg/mL. In the assay with P. aeruginosa PA01 (WT) (PAO1, MH medium (Table 24)), the “MIC (MH)” value was 2 µg/mL. For the same substance, in assay [4], the “MIC P. aeruginosa MDR clinical isolate PEJ2.6” value stood at 1 µg/mL, the “MIC P. aeruginosa MDR clinical isolate PEJ9.1” value is 2 µg/mL, the “MIC P. aeruginosa MDR clinical isolate ZEM1A” value was less than 1 µg/mL and the “MIC P. aeruginosa MDR clinical isolate ZEM9A” value was found to be 8 µg/mL.
